ChEMBL document CHEMBL1126338, “The synthesis of a conformationally rigid calcium channel blocker” (Bioorg Med Chem Lett, 1992)

Columns and labels:
Oryctolagus cuniculus = species on record: Oryctolagus cuniculus; test: Inhibition of K+ induced contraction of rabbit aorta; format: functional; conditions: read-out: I50
[1] = Inhibition of [3H]D-cis-diltiazem binding to calcium channel of isolated guinea pig skeletal muscle microsomal preparation; format: microsomes, Cavia porcellus, Muscle tissue

Structure (SMILES) | IC50 (Oryctolagus cuniculus) [nM] | Kd [1] [nM]
COc1ccc([C@@H]2CC3c4ccccc4C2C[C@@]32CCNC2)cc1 (stereo partly specified) | 950 | 330
COc1ccc([C@@H]2CC3c4ccccc4C2C[C@]32CCNC2)cc1 (stereo partly specified) | 2000 | 1260
COc1ccc([C@@H]2Sc3ccccc3N(CCN(C)C)C(=O)[C@@H]2OC(C)=O)cc1 [DILTIAZEM] | 1800 | 380
